Where a SMILES comes first, the peptide text is derived from it.
Tested on: HCV IRES
Test: HCV IRES reporter FACS assay (GFP expression ratio, intein-expressed cyclic peptides)
Format: cell-based, Hepatitis C virus
Settings: 3-mers from mutant intein scaffold, junction Val-His-Asn-X1X2X3-Trp-Ile-Ser; ratio at least 1.20 = significant activity
From the text: [The source words this procedure for another variant and says it was used here with some conditions changed.] Cells producing libraries of cyclic 3-mers and 4-mers (i.e., libraries of cyclic peptides that contain 3 or 4 amino acid residues) were constructed using methods identical to those of Kinsella et al (J Biol. Chem. 2002 277:37512-8), except different oligonucleotides were used for library construction. Clones from this library were screened in an assay shown in FIG. 2 to identify IRES-inhibitory compounds.
In summary, separate cyclic 3-mer and cyclic 4-mer libraries were constructed such that each peptide of the library contained a fixed Ser, Thr or Cys residue (at position 1) and the remaining residues were randomized. For library construction, degenerate oligonucleotides of sequence 5′-[…](AGC/ACC/TGC)(NNK)2 or 3 TGCATCAGCGGCGACAG-3′ were annealed to the primer 5′-[…]-3′ and extended using the Expand PCR kit (Roche Molecular Biochemicals). The double-stranded DNA insert was digested and inserted into the BclI/DrdI sites of DnaBO-e-BFP (ACUC). The plasmid libraries were electroporated into ElectroMAX DH 10B competent E. coli (Invitrogen) for amplification on LB+amp agar medium. […] Expression of the intein is detected by detecting BFP expression. Expression of the intein (and the cyclic peptide produced by the intein) is suppressible by addition of exogenous doxycycline. The amino acid sequence of the junctions of the intein scaffold used in making the 3-mer library is Val-His-Asn-X3 or 4-Cys-Ile-Ser, where X3 or 4 are three or four contiguous amino acids.
Infectious retroviral particles were produced by transfection of 15 µg of each library (as described in Swift et al, (1999). Current Protocols in Immunology Vol. 10.17C, pp. 1-17, Freeman, N.Y.) into approximately 5×10^6 Phoenix-A packaging cells. Each resulting library of retroviral particles was then used to infect 5×10^6 BJAB-S3A11 reporter cells and a FACS based selection was carried out to isolate cells with reduced HCV-IRES reporter output.
In detail, referring to FIG. 2, the cells used in the assay contained an IRES-dependent reporter system. […]. Also present in the cells is a control reporter system for assaying the activity of 5′ cap-dependent translation (the mechanism by which most cellular proteins are normally translated). The control reporter system contains a CMV promoter that drives the transcription of an RNA containing 5′ cap-dependent UTR, operably linked to an RNA encoding RFP (red fluorescent protein). Translation of RFP is dependent on the activity of the 5′ cap-dependent UTR.
Cells containing both the cyclic compound library and the reporter systems described above were first screened for survival upon exposure to diptheria toxin, and then screened by FACS to identify cells that had reduced GFP expression, as compared to RFP expression. Cells were expanded and replica-plated and grown in the presence or absence of dox (100 ng/ml) for four days. Plates were stimulated with IL-4 and GFP expression (relative to RFP) was monitored by flow cytometry. The IRES-inhibitory activity of a peptide is evaluated by calculating the ratio of the geometric mean of GFP expression of peptide positive cells (“peptide pos+” cells i.e., cells not contacted with dox) to the geometric mean of GFP expression of peptide negative cells (“peptide pos−” cells i.e., cells contacted with dox).
Cyclic peptides assigned higher scores have a greater IRES-inhibitory activity.
The number shown in parentheses after each of the amino acid sequences is the IRES-inhibitory activity ratio, as discussed above.

Point of comparison: `O=C1N[C@@H](Cc2c[nH]c3ccccc23)C(=O)N[C@@H](CO)C(=O)N[C@H]1CO` [cyclo-SSW, cyclo[SSW]] (cyclo(Ser-Ser-Trp)), “IRES-inhibitory activity ratio (geometric mean GFP expression, peptide positive cells / peptide negative cells)” value 2.05. Against it:
- O=C1N[C@@H](CO)C(=O)N2CCC[C@H]2C(=O)N[C@H]1Cc1c[nH]c2ccccc12 [cyclo-SPW, cyclo[SPW]] (cyclo(Pro-Trp-Ser)) — higher, 2.28
- NC(=O)CC[C@@H]1NC(=O)[C@H](CO)NC(=O)[C@H](Cc2c[nH]c3ccccc23)NC1=O [cyclo-SQW, cyclo[SQW]] (cyclo(Gln-Trp-Ser)) — higher, 2.20
- N=C(N)NCCC[C@@H]1NC(=O)[C@H](CO)NC(=O)[C@H](Cc2c[nH]c3ccccc23)NC1=O [cyclo-SRW, cyclo[SRW]] (cyclo(Arg-Trp-Ser)) — higher, 2.14
- C[C@@H](O)[C@@H]1NC(=O)[C@H](CO)NC(=O)[C@H](Cc2c[nH]c3ccccc23)NC1=O [cyclo-STW, cyclo[STW]] (cyclo(Ser-Thr-Trp)) — higher, 2.12
- C[C@@H]1NC(=O)[C@H]([C@@H](C)O)NC(=O)[C@H](Cc2c[nH]c3ccccc23)NC1=O [cyclo-TAW, cyclo[TAW]] (cyclo(Ala-Trp-Thr)) — higher, 5.09

Same assay, conditions: 3-mers from mutant intein scaffold, junction Val-His-Tyr-X1X2X3-Cys-Ile-Ser; ratio at least 1.20 = significant activity

Point of comparison: `CC(C)[C@@H]1NC(=O)[C@H]([C@@H](C)O)NC(=O)[C@H](CO)NC1=O` [cyclo-STV, cyclo[STV]] (cyclo(Ser-Thr-Val)), “IRES-inhibitory activity ratio (geometric mean GFP expression, peptide positive cells / peptide negative cells)” value 2.24. Against it:
- CC(C)[C@@H]1NC(=O)[C@H](C)NC(=O)[C@H]([C@@H](C)O)NC1=O [cyclo-TAV, cyclo[TAV]] (cyclo(Ala-Val-Thr)) — lower, 2.00

Same assay, conditions: 4-mers from mutant intein scaffold, junction Val-His-Asn-X1X2X3X4-Cys-Ser; ratio at least 1.20 = significant activity

Point of comparison: `NCCCC[C@@H]1NC(=O)[C@H](Cc2ccccc2)NC(=O)[C@H](Cc2c[nH]c3ccccc23)NC(=O)[C@H](CO)NC1=O` [cyclo-SWFK, cyclo[SWFK]] (cyclo(FKSW)), “IRES-inhibitory activity ratio (geometric mean GFP expression, peptide positive cells / peptide negative cells)” value 1.58. Against it:
- C[C@@H]1NC(=O)[C@H](Cc2ccccc2)NC(=O)[C@H](Cc2c[nH]c3ccccc23)NC(=O)[C@H](CO)NC1=O [cyclo-SWFA, cyclo[SWFA]] (cyclo(ASWF)) — lower, 1.31
- CSCC[C@@H]1NC(=O)[C@H](Cc2ccccc2)NC(=O)[C@H](Cc2c[nH]c3ccccc23)NC(=O)[C@H](CO)NC1=O [cyclo-SWFM, cyclo[SWFM]] (cyclo(FMSW)) — lower, 1.31
- N=C(N)NCCC[C@@H]1NC(=O)[C@H](Cc2ccccc2)NC(=O)[C@H](Cc2c[nH]c3ccccc23)NC(=O)[C@H](CO)NC1=O [cyclo-SWFR, cyclo[SWFR]] (cyclo(FRSW)) — lower, 1.44
- N=C(N)NCCC[C@@H]1NC(=O)[C@H](Cc2c[nH]c3ccccc23)NC(=O)[C@H](Cc2c[nH]c3ccccc23)NC(=O)[C@H](CO)NC1=O [cyclo-SWWR, cyclo[SWWR]] (cyclo(RSWW)) — higher, 2.03
- N=C(N)NCCC[C@@H]1NC(=O)[C@H](Cc2ccc(O)cc2)NC(=O)[C@H](Cc2c[nH]c3ccccc23)NC(=O)[C@H](CO)NC1=O [cyclo-SWYR, cyclo[SWYR]] (cyclo(RSWY)) — lower, 1.49

Same assay, conditions: BJAB-S3A11 reporter cells, +/- dox 100 ng/ml four days; library intein junction Val-His-Asn-X1X2X3-Cys-Ile-Ser; ratio at least 1.20 = significant activity

Point of comparison: `CSCC[C@@H]1NC(=O)[C@H](Cc2c[nH]c3ccccc23)NC(=O)[C@H](CO)NC1=O` [cyclo-SWM, cyclo[SWM]] (cyclo(Met-Ser-Trp)), “IRES-inhibitory activity ratio (geometric mean GFP expression, peptide positive cells / peptide negative cells)” value 1.22. Against it:
- CCC(C)[C@@H]1NC(=O)[C@H](C(C)C)NC(=O)[C@H](CO)NC1=O (some centres unmarked) [cyclo-SVI, cyclo[SVI]] — higher, 1.28
- CC(C)[C@@H]1NC(=O)[C@H](CO)NC(=O)[C@H](C(C)C)NC1=O [cyclo-SVV, cyclo[SVV]] (cyclo(Ser-Val-Val)) — higher, 1.64
- CC(C)[C@@H]1NC(=O)[C@H](CO)NC(=O)[C@H](Cc2c[nH]c3ccccc23)NC1=O [cyclo-SVW, cyclo[SVW]] (cyclo(Ser-Val-Trp)) — higher, 1.3
- O=C1N[C@@H](Cc2c[nH]c3ccccc23)C(=O)N[C@@H](Cc2ccccc2)C(=O)N[C@H]1CO [cyclo-SWF, cyclo[SWF]] (cyclo(Phe-Ser-Trp)) — higher, 1.33
- CCC(C)[C@@H]1NC(=O)[C@H](Cc2c[nH]c3ccccc23)NC(=O)[C@H](CO)NC1=O (some centres unmarked) [cyclo-SWI, cyclo[SWI]] — higher, 1.36
- CC(C)[C@@H]1NC(=O)[C@H](Cc2c[nH]c3ccccc23)NC(=O)[C@H](CO)NC1=O [cyclo-SWV, cyclo[SWV]] (cyclo(Ser-Trp-Val)) — higher, 1.83
- O=C1N[C@@H](Cc2c[nH]c3ccccc23)C(=O)N[C@@H](Cc2c[nH]c3ccccc23)C(=O)N[C@H]1CO [cyclo-SWW, cyclo[SWW]] (cyclo(Ser-Trp-Trp)) — higher, 2.37
- O=C1N[C@@H](Cc2c[nH]c3ccccc23)C(=O)N[C@@H](Cc2ccc(O)cc2)C(=O)N[C@H]1CO [cyclo-SWY, cyclo[SWY]] (cyclo(Ser-Trp-Tyr)) — higher, 1.38
- CC(C)[C@@H]1NC(=O)[C@H](Cc2ccc(O)cc2)NC(=O)[C@H](CO)NC1=O [cyclo-SYV, cyclo[SYV]] (cyclo(Ser-Tyr-Val)) — higher, 1.4
- O=C1N[C@@H](Cc2ccc(O)cc2)C(=O)N[C@@H](Cc2c[nH]c3ccccc23)C(=O)N[C@H]1CO [cyclo-SYW, cyclo[SYW]] (cyclo(Ser-Tyr-Trp)) — higher, 1.64
- C[C@@H](O)[C@@H]1NC(=O)[C@H](Cc2c[nH]c3ccccc23)NC(=O)[C@H](CS)NC1=O [cyclo-TCW, cyclo[TCW]] (cyclo(Cys-Trp-Thr)) — higher, 1.48
- C[C@@H](O)[C@@H]1NC(=O)[C@H](Cc2c[nH]c3ccccc23)NC(=O)[C@H](Cc2ccccc2)NC1=O [cyclo-TFW, cyclo[TFW]] (cyclo(Phe-Trp-Thr)) — higher, 1.75
- C[C@@H](O)[C@@H]1NC(=O)[C@H](Cc2c[nH]c3ccccc23)NC(=O)[C@H](Cc2cnc[nH]2)NC1=O [cyclo-THW, cyclo[THW]] (cyclo(His-Trp-Thr)) — higher, 1.49
- CC(C)C[C@@H]1NC(=O)[C@H]([C@@H](C)O)NC(=O)[C@H](Cc2c[nH]c3ccccc23)NC1=O [cyclo-TLW, cyclo[TLW]] (cyclo(Leu-Trp-Thr)) — lower, 1.2

Reference: patent US20060116316A1, “Heterocyclic inhibitors of IRES-mediated translation and methods of use thereof” (priority 2004, published 2006)
